Assay results as given in patent publication US7671054B1, “Reverse-turn mimetics and method relating thereto” (Choongwae Pharma Corporation, priority 2001, dated 2010).
Read-outs that look alike come from different tables or passages of the source.

Key:
Format in all cases: cell-based
TCF4 = assay: Effect on TCF4 expression (Table 9)
From the text: (§1) The effects of various compounds having general formula (I) on survivin and TCF4 expression were characterized.

Survivin = assay: Effect on survivin expression (Table 9)
From the text: as §1

SW480 cells [1] = assay: Growth inhibition assay (MTS); conditions: Homo sapiens, SW480 cells
Outline: (§2)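 Cells seeded at 10^4 per well, grown 24 h at 37° C, then exposed to compound at various concentrations for 48 hours. MTS added for 2 h; absorbance at 490 nm gave viability, with cytotoxicity calculated per concentration against pre-treatment reading.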

HCT116 cells [2] = assay: Growth inhibition assay (MTS); conditions: Homo sapiens, HCT116 cells
Outline: as §2

[3] = test system: TCF4/β-catenin transcription (TOPFlash) in SW480 cells; assay: Reporter gene assay (TOPFlash luciferase); conditions: Homo sapiens
Outline: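 SW480 cells transiently co-transfected with TOPFlash and pRL-null (4:1 µg) using Superfect, then reseeded at 3×10^4 cells/well and incubated overnight at 37 °C. Compound treatment lasted 24 h before luciferase read-out.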

SW480 cells [4] = assay: MTS cytotoxicity test; conditions: Homo sapiens, Table 10, prodrug compounds, 24 hours treatment, read-out: MTS, SW480 (uM) LD50
Method: (§3) SW480 or HCT116 cells were placed into 96 well microplate (10^4cells/well) and incubated for 24 hours at 37° C. The cells were treated with TCF4 compound at various concentrations for 24 hours. 20 μl of MTS solution (Promega) was added into each well and incubated for 2 hours at 37° C. Cell viability was measured by reading the absorbance at 490 nm using microplate reader (Molecular Device) and cytotoxicity of a compound at each concentration was calculated.

HCT116 cells [5] = assay: MTS cytotoxicity test; conditions: Homo sapiens, HCT-116, Table 10, prodrug compounds, 24 hours treatment, read-out: MTS, HCT116 (uM) LD50
Method: as §3

[6] = test system: survivin promoter in SW480 cells; assay: Survivin luciferase reporter in SW480 cells; conditions: Homo sapiens, SW480; Table 10; prodrug compounds, reporter gene assay Survivin; read-out: RGA, Survivin IC50
[7] = SW480, 48 h, Table 5, 48 hours treatment, MTS, read-out: Growth Inhibition (GI50, uM) SW480
[8] = HCT-116, 48 h, Table 5, 48 hours treatment, MTS, read-out: Growth Inhibition (GI50, uM) HCT116
[9] = Table 10, prodrug compounds, growth inhibition, read-out: MTS, SW480 (uM) GI50
[10] = HCT-116, Table 10, prodrug compounds, growth inhibition, read-out: MTS, HCT116 (uM) GI50
[11] = SW480, Table 10, prodrug compounds, reporter gene assay TopF, read-out: RGA, TopF IC50

Compound | IC50 (TCF4) [µM] | inhibition at 5 µM (Survivin) [%] | inhibition at 25 µM (Survivin) [%] | also measured
CN1CC(=O)N2[C@@H](Cc3ccc(O)cc3)C(=O)N(Cc3cccc4ccccc34)C[C@@]2(C)N1C(=O)NCc1ccccc1 | ~2 | 100 | 99 | 
CN1CC(=O)N2C(Cc3ccc(O)cc3)C(=O)N(Cc3cccc4cccnc34)CC2N1C(=O)NCc1ccccc1 (stereo not drawn) | ~2.2 | 97 | 100 | 
CN1CC(=O)N2C(Cc3ccc(O)cc3)C(=O)N(Cc3ccc(F)cc3F)CC2N1C(=O)NCc1ccccc1 (stereo not drawn) | ~6.3 | 51 | 93 | 
CN(C)c1ccccc1CN1C[C@@H]2N(C(=O)CN(C)N2C(=O)NCc2ccccc2)[C@@H](Cc2ccc(O)cc2)C1=O | 5.2 ± 0.7 | 41 | 92 | 
CN(C)c1cccc(F)c1CN1C[C@@H]2N(C(=O)CN(C)N2C(=O)NCc2ccccc2)[C@@H](Cc2ccc(O)cc2)C1=O | 18.2 ± 2.4 | 0 | 6 | 
CN1CC(=O)N2[C@@H](CN(Cc3ccc(F)cc3C(F)(F)F)C(=O)[C@@H]2Cc2ccc(O)cc2)N1C(=O)NCc1ccccc1 | 1.3 ± 0.1 | 0 | 80 | 
CN(C)c1ccc(Cl)cc1CN1C[C@@H]2N(C(=O)CN(C)N2C(=O)NCc2ccccc2)[C@@H](Cc2ccc(O)cc2)C1=O | 2.2 ± 0.2 | 0 | 93 | 
CCN(C)c1cccc(CN2C[C@@H]3N(C(=O)CN(C)N3C(=O)NCc3ccccc3)[C@@H](Cc3ccc(O)cc3)C2=O)c1 | 4.4 ± 0.6 | 46 | 96 | 
CCN(CC)c1cccc(CN2C[C@@H]3N(C(=O)CN(C)N3C(=O)NCc3ccccc3)[C@@H](Cc3ccc(O)cc3)C2=O)c1 | 3.5 ± 0.3 | 0 | 77 | 
CN(C)c1cc(CN2C[C@@H]3N(C(=O)CN(C)N3C(=O)NCc3ccccc3)[C@@H](Cc3ccc(O)cc3)C2=O)ccc1Cl | 7.3 ± 0.6 | 0 | 92 | 
CN(C)c1cc(F)ccc1CN1C[C@@H]2N(C(=O)CN(C)N2C(=O)NCc2ccccc2)[C@@H](Cc2ccc(O)cc2)C1=O | 1.7 ± 0.2 | 79 | 81 | 
Cc1cc(C)c(N(C)C)c(CN2C[C@@H]3N(C(=O)CN(C)N3C(=O)NCc3ccccc3)[C@@H](Cc3ccc(O)cc3)C2=O)c1 | 4.8 ± 0.4 | 0 | 84 | 
Cc1cccc(CN2C[C@@H]3N(C(=O)CN(C)N3C(=O)NCc3ccccc3)[C@@H](Cc3ccc(O)cc3)C2=O)c1N(C)C | 10.9 ± 1.3 | 0 | 68 | 
Cc1cccc(N(C)C)c1CN1C[C@@H]2N(C(=O)CN(C)N2C(=O)NCc2ccccc2)[C@@H](Cc2ccc(O)cc2)C1=O |  | 8 | 4 | 
CN(C)c1cc(F)c(F)cc1CN1C[C@@H]2N(C(=O)CN(C)N2C(=O)NCc2ccccc2)[C@@H](Cc2ccc(O)cc2)C1=O | 1.4 ± 0.2 | 9 | 91 | 
CC(C)N(C)c1cccc(CN2C[C@@H]3N(C(=O)CN(C)N3C(=O)NCc3ccccc3)[C@@H](Cc3ccc(O)cc3)C2=O)c1 | 6.3 ± 0.431 | 5 | 91 | 
Cc1ccc(N(C)C)c(CN2C[C@@H]3N(C(=O)CN(C)N3C(=O)NCc3ccccc3)[C@@H](Cc3ccc(O)cc3)C2=O)c1 | 2.6 ± 0.4 | 0 | 94 | 
CN(C)c1c(Cl)cccc1CN1C[C@@H]2N(C(=O)CN(C)N2C(=O)NCc2ccccc2)[C@@H](Cc2ccc(O)cc2)C1=O | 7.3 ± 1.1 | 0 | 21 | 
CN(C)c1c(CN2C[C@@H]3N(C(=O)CN(C)N3C(=O)NCc3ccccc3)[C@@H](Cc3ccc(O)cc3)C2=O)cccc1C(F)(F)F | 5.2 ± 1.1 | 0 | 91 | 

Compound | IC50 (TCF4) [µM] | inhibition at 5 µM (Survivin) [%] | inhibition at 25 µM (Survivin) [%] | also measured
CN1CC(=O)N2[C@@H](CN(Cc3cccc4c3ncn4C)C(=O)[C@@H]2Cc2ccc(O)cc2)N1C(=O)NCc1ccccc1 | 13.2 ± 4.1 | 45 | 88 | 
COc1cccc(CN2C[C@@H]3N(C(=O)CN(C)N3C(=O)NCc3ccccc3)[C@@H](Cc3ccc(O)cc3)C2=O)c1N(C)C | 5.9 ± 0.5 | 9 | 92 | 
CN1CC(=O)N2[C@@H](Cc3ccc(O)cc3)C(=O)N(Cc3c(Cl)cc(Cl)c4cccnc34)C[C@@]2(C)N1C(=O)NCc1ccccc1 | 11.2 ± 1.5 | 6 | 58 | 
Cc1c(CN2C[C@@H]3N(C(=O)CN(C)N3C(=O)NCc3ccccc3)[C@@H](Cc3ccc(O)cc3)C2=O)cccc1N(C)C | 3.9 ± 0.55 | 48 | 96 | 
CN1CC(=O)N2[C@@H](CN(Cc3c(Cl)ccc4cccnc34)C(=O)[C@@H]2Cc2ccc(O)cc2)N1C(=O)NCc1ccccc1 | 50.4 ± 7 | 0 | 32 | 
CN1CC(=O)N2[C@@H](CN(Cc3ccc(Cl)c4cccnc34)C(=O)[C@@H]2Cc2ccc(O)cc2)N1C(=O)NCc1ccccc1 | 2.6 ± 0.6 | 86 | 91 | 
CC(C)N(C)c1ccccc1CN1C[C@@H]2N(C(=O)CN(C)N2C(=O)NCc2ccccc2)[C@@H](Cc2ccc(O)cc2)C1=O | 10.7 ± 1.7 | 27 | 98 | 
CN1CC(=O)N2[C@@H](CN(Cc3cccc4cn[nH]c34)C(=O)[C@@H]2Cc2ccc(O)cc2)N1C(=O)NCc1ccccc1 | 4.6 ± 0.7 | 80 | 97 | 
CN1CC(=O)N2[C@@H](CN(Cc3cccc4cnn(C)c34)C(=O)[C@@H]2Cc2ccc(O)cc2)N1C(=O)NCc1ccccc1 | 2.8 ± 0.4 | 82 | 97 | 
CN(C)c1cc(Cl)ccc1CN1C[C@@H]2N(C(=O)CN(C)N2C(=O)NCc2ccccc2)[C@@H](Cc2ccc(O)cc2)C1=O | 13.9 ± 2.3 | 6 | 89 | 
Cc1ccc(N(C)C(C)C)c(CN2C[C@@H]3N(C(=O)CN(C)N3C(=O)NCc3ccccc3)[C@@H](Cc3ccc(O)cc3)C2=O)c1 | 10.7 ± 1.9 | 14 | 99 | 
CC(C)N(C)c1ccc(Cl)c(CN2C[C@@H]3N(C(=O)CN(C)N3C(=O)NCc3ccccc3)[C@@H](Cc3ccc(O)cc3)C2=O)c1 | 27.1 ± 4.6 | 25 | 44 | 
CN1CC(=O)N2C(CN(Cc3cc(F)c(F)c(F)c3)C(=O)[C@@H]2Cc2ccc(O)cc2)N1C(=O)NCc1ccccc1 (stereo in doubt) [Compound 16] |  |  |  | GI50 (SW480 cells [1]; [7]): 4.18 µM; GI50 (HCT116 cells [2]; [8]): 2.95 µM; IC50 ([3]; SW480, Table 4, Reporter gene assay as described in Example 6, read-out: IC50): 3.8 µM
CN1CC(=O)N2[C@@H](Cc3ccc(OP(=O)(O)O)cc3)C(=O)N(Cc3cccc4ccccc34)C[C@@H]2N1C(=O)NCc1ccccc1 [Compound 2] |  |  |  | GI50 (SW480 cells [1]; [9]): 3.1 µM; GI50 (HCT116 cells [2]; [10]): 6.6 µM; IC50 [3, 11]: 3.5 µM; IC50 (SW480 cells [4]): 8.2 µM; IC50 (HCT116 cells [5]): 23.2 µM; IC50 [6]: 5.7 µM
CN(C)c1cc(F)ccc1CN1C[C@H]2N(C(=O)CN(C)N2C(=O)NCc2ccccc2)[C@@H](Cc2ccc(OP(=O)(O)O)cc2)C1=O [Compound 3] |  |  |  | GI50 (SW480 cells [1]; [9]): 3 µM; GI50 (HCT116 cells [2]; [10]): 3.1 µM; IC50 [3, 11]: 11.5 µM; IC50 (SW480 cells [4]): > 50 µM; IC50 (HCT116 cells [5]): 41.9 µM
CN1CC(=O)N2[C@@H](Cc3ccc(OP(=O)(O)O)cc3)C(=O)N(Cc3cccc4cnn(C)c34)C[C@@H]2N1C(=O)NCc1ccccc1 [Compound 5] |  |  |  | GI50 (SW480 cells [1]; [9]): 5.2 µM; GI50 (HCT116 cells [2]; [10]): 16.5 µM; IC50 [3, 11]: 26 µM; IC50 (SW480 cells [4]): 34 µM; IC50 (HCT116 cells [5]): > 50 µM
C=CCN1CC(=O)N2[C@@H](Cc3ccc(O)cc3)C(=O)N(Cc3ccc(Cl)c4scnc34)C[C@@H]2N1C(=O)NCc1ccccc1 [Compound 193] |  |  |  | GI50 (SW480 cells [1]; [7]): 0.8 ± 0.1 µM; GI50 (HCT116 cells [2]; [8]): 1.1 ± 0.1 µM
C=CCN1CC(=O)N2[C@@H](Cc3ccc(O)cc3)C(=O)N(Cc3ccc(F)c4scnc34)C[C@@H]2N1C(=O)NCc1ccccc1 [Compound 194] |  |  |  | GI50 (SW480 cells [1]; [7]): 0.2 ± 0.02 µM; GI50 (HCT116 cells [2]; [8]): 0.2 ± 0.02 µM
C=CCN1CC(=O)N2[C@@H](Cc3ccc(O)cc3)C(=O)N(Cc3cccc4sc(C(=O)OCC)nc34)C[C@@H]2N1C(=O)NCc1ccccc1 [Compound 195] |  |  |  | GI50 (SW480 cells [1]; [7]): 3.1 ± 0.4 µM; GI50 (HCT116 cells [2]; [8]): 3 ± 0.3 µM
